According to article doi:10.1101/049825v1, “Htm1p-Pdi1p is a folding sensitive mannosidase that marks N-glycoproteins for ER-associated protein degradation” (biorxiv, 2016):

Target: T1, Htm1p-Pdi1p (Saccharomyces cerevisiae, UniProt P38888)
T1 construct: gene MNL1; full-length HTM1 coding region with C-terminal 3xFLAG-HDEL tag (released by TEV), chromosomal TDH3 promoter, strain yJW1820; co-purified with endogenous Pdi1p, near 1:1; with Protein disulfide-isomerase
T1 sequence (P38888 21-796): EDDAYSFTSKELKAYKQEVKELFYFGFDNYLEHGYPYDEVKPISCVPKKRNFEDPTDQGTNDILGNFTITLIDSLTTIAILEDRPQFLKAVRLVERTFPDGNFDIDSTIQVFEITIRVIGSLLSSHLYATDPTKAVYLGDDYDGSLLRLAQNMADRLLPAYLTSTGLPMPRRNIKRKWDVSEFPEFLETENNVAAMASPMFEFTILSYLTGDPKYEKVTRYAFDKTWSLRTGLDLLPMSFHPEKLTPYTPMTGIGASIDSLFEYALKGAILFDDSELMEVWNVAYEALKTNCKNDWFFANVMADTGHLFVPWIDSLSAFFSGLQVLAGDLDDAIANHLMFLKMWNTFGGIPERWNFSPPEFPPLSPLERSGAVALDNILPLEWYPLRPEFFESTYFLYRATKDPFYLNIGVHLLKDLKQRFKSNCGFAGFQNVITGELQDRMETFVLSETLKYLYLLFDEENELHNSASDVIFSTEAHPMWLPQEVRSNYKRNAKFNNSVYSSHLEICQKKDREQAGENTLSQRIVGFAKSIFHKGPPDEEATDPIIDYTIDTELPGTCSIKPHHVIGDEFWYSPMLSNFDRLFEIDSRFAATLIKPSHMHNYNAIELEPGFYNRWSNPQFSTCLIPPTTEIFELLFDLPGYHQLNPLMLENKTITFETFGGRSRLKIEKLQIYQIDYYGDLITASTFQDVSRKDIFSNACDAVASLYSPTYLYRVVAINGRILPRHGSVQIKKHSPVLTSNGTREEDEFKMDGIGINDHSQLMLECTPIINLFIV
T1 sequence (P17967 29-522 partner): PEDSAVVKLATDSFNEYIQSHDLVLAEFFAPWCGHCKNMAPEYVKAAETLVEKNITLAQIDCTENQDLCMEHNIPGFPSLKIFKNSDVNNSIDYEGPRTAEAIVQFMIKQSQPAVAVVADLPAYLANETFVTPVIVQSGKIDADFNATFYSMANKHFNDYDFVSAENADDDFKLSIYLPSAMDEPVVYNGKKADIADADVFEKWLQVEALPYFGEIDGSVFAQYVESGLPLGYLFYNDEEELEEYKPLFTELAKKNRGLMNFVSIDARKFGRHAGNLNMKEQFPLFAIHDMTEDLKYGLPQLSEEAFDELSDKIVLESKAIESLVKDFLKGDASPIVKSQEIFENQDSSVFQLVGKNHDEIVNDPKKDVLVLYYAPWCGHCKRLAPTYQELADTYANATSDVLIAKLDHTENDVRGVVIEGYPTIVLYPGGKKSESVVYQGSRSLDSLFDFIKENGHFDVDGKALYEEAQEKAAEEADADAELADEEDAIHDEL
Assay: MALDI-TOF MS glycan profiling of CPY* (Man8 to Man7 conversion)
Format: biochemical
Conditions: glycoprotein substrate CPY* 2 μM, enzyme 0.1 μM, 2 mM CaCl2, pH 7.0, 30°C, 20 h; inhibitor concentration not given

## OC[C@H]1NC[C@@H](O)[C@@H](O)[C@@H]1O [1-deoxymannojirimycin]
  MALDI-TOF MS glycan profiling of CPY* (Man8 to Man7 conversion): Both chemicals inhibited the generation of Man7 on CPY*
